Test results reported in publication PMC5513871 (British Journal of Pharmacology, 2017).
Read-outs that look alike come from different tables or passages of the source.

What was measured:
[1] = test system: AF goat model; details: cited from earlier work
[2] = test system: normal dogs under anaesthesia; details: 1 μmol/kg/min; ref Roza and Berman, 1971; cited from earlier work
[3] = test system: Langendorff‐perfused sheep heart; details: ref Noujaim et al., 2011; cited from earlier work
[4] = test system: IKACh; details: read-out: IC50 IKACh; ref Filgueiras‐Rama et al., 2012; cited from earlier work
[5] = test system: IKATP; details: read-out: IC50 IKATP; ref Filgueiras‐Rama et al., 2012; cited from earlier work
[6] = test system: IK1; details: read-out: IC50 IK1; ref Filgueiras‐Rama et al., 2012; cited from earlier work
[7] = test system: anaesthetized SR dogs; details: 4 mg/kg/40 min, at 40 min; ref Yokoyama et al. (2009); cited from earlier work
[8] = test system: cAVB dogs; assay: Proarrhythmia test; format: in vivo, dog; details: cAVB dogs n = 9, paced 1 Hz; PA‐6 2.5 mg/kg/10 min, dofetilide 0.025 mg/kg/5 min
[9] = awake goats, 1 week of AF, ref Eijsbouts et al., 2006
[10] = awake goats, 4 weeks of AF, ref Eijsbouts et al., 2006
[11] = awake goats, 8 weeks of AF, ref Eijsbouts et al., 2006
[12] = awake goats, 16 weeks of AF, ref Eijsbouts et al., 2006

Q: With `O=C(NCC1CCCCN1)c1cc(OCC(F)(F)F)ccc1OCC(F)(F)F` (stereo not shown) [flecainide] as the compound, how does the Cardioversion rate [1, 9] read?
A: Its Cardioversion rate is 60%.

Q: What about the Cardioversion rate [1, 10] of the same compound?
A: The Cardioversion rate was 33%.

Q: What about the Cardioversion rate [1, 11] of the same compound?
A: The Cardioversion rate was 33%.

Q: What about the Cardioversion rate [1, 12] of the same compound?
A: The Cardioversion rate was 17%.

Q: Which “Course of events upon infusion” value [2] does the source give for `[Ba+2].[Cl-].[Cl-]` [BaCl2] here?
A: The value was “hypotension, flaccid paralysis of skeletal muscles, ventricular tachycardia and fibrillation”.

Q: Which results are given for `CCN(CC)CCCC(C)Nc1ccnc2cc(Cl)ccc12` (stereo not shown) [chloroquine]?
A: Concentration terminating cholinergically induced AF [3]: 10 µM; IC50 [4]: 380 nM; IC50 [5]: 510 nM; IC50 [6]: 690 nM

Q: Which Cardioversion rate ([1]; 3 to 4 weeks of pacing induced persistent AF, ref Wijffels et al., 1999) does the source give for `CC(C)NC[C@@H](O)c1ccc(NS(C)(=O)=O)cc1` [d‐Sotalol] here?
A: Its Cardioversion rate is 92%.

Q: Which results are given for `c1ccc(C2(c3ccccc3)CC2C2=NCCN2)cc1` (stereo not shown) [cibenzoline]?
A: Cardioversion rate ([1]; 3 to 4 weeks of pacing induced persistent AF, ref Eijsbouts et al., 2006): 78%; Cardioversion rate [1, 9]: 80%; Cardioversion rate [1, 10]: 78%; Cardioversion rate [1, 11]: 67%; Cardioversion rate [1, 12]: 63%

Q: For `N=C(N)c1ccc(OCCCCCOc2ccc(C(=N)N)cc2)cc1` [pentamidine], which QTc increase [7] is on record?
A: Its QTc increase is “approx. 8%”.

Q: For `CN(CCOc1ccc(NS(C)(=O)=O)cc1)CCc1ccc(NS(C)(=O)=O)cc1` [dofetilide], which LVMAPD80 [8] is on record?
A: The LVMAPD80 was 400 ± 64 ms.

Q: What about the QTc [8] of the same compound?
A: The QTc was 600 ± 33 ms.

Q: What about the STV [8] of the same compound?
A: The STV was 1.82 ± 0.88 ms.
